# Measured values as given in patent publication US8053453B2, “Pyrazolone compounds and thrombopoietin receptor activator” (Nissan Chemical Industries, Ltd., priority 2002, dated 2011).
# Like-named read-outs stand apart in the source and are kept apart here.
# Molecular target: T1, human TPO receptor (Homo sapiens, UniProt P40238)
# T1 construct: expressed in transfected cells
# T1 sequence (P40238 26-635): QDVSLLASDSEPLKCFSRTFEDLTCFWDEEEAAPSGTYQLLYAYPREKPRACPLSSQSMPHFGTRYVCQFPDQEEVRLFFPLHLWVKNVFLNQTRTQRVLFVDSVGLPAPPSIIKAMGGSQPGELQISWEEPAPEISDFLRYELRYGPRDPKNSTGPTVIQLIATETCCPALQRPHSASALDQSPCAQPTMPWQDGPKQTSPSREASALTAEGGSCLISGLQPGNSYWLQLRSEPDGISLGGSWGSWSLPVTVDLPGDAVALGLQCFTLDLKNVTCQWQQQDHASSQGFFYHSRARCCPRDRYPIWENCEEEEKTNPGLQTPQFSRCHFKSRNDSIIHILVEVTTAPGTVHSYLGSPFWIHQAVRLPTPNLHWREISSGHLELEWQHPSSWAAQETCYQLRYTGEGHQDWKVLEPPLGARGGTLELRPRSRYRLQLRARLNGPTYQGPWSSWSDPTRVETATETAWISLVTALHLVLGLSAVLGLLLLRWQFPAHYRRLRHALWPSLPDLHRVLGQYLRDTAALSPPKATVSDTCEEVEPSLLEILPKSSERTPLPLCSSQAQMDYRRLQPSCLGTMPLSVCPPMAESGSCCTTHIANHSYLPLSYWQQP
# Assay: Proliferation of TPO-dependent cell line UT7/EPO-mpl, MTT method (Assay Examples 1, 3, 4)
# Format: cell-based
# Conditions: UT7/EPO-mpl cells; for EC50: concentration giving 50% of the maximum cell growth observed with the same compound; for Efficacy (%) (maximal growth rate) / Emax: value in the presence of 10 ng/ml TPO taken as 100% standard, method of Assay Example 1; for Emax: read-out: Efficacy (%) (maximal growth rate)
# Protocol: The reactivity of Synthetic Example 56, the compound of the present invention, with thrombopoietin (TPO) receptor was assayed using a human leukemic cell line, UT7/EPO-mpl.
# UT7/EPO-mpl is a stable transformed cell line obtained by introducing into human leukemic cell line UT7/EPO a vector that induces expression of human TPO receptor (c-mp1) under control of a cytomegaloviral promoter by the method of Takatoku et al. (J. Biol. Chem., 272:7259-7263 (1997)). […] These two cell lines were subcultured in Iscove's modified Dulbecco's medium (IMDM; GIBCO) containing 10% fetal bovine serum (FBS; TRACE SCIENTIFIC) using a CO2 incubator (5% CO2, 37° C.).
# The subcultured cells described above were washed twice with phosphate buffered saline (PBS) and suspended in IMDM containing 10% FBS at a cell density of 6×10^4 cells/ml. The cell suspension was transferred to a 96-well tissue culture plate (CORNING) in 100-μl aliquots. Then either TPO (PeproTech EC) or Synthetic Example 56 dissolved in dimethylsulfoxide (DMSO) was diluted 83-fold with IMDM containing 10% FBS and added to the aforementioned cell suspension in 20-μl aliquots. The suspension was incubated in a CO2 incubator (5% CO2, 37° C.) for 4 days. Cell proliferation was assayed according to the method of Mosmann et al. (J. Immunol. Methods, 65:55-63 (1983)). A 10-μl aliquot of 5 mg/ml MTT reagent (SIGMA) was added to each well of the tissue culture plate and the plate was incubated at 37° C. for 4 h. The formazan pigment generated was dissolved by adding 150 μl per well of 0.1 M HCl/isopropanol solution and the absorbance of the resulting pigment solution was measured at 550 nm with a 96-well microplate reader (BIO-RAD, M450).
# The following Synthetic Examples were tested according to the method of Assay Example 1 to determine the maximal growth rate (efficacy), expressed by taking the value with human leukemic cell line UT7/EPO-mpl observed in the presence of 10 ng/ml TPO as 100% standard, and the concentration of each compound that yields a growth rate corresponding to 50% of the maximum cell growth observed with the same compound (EC50).
# Synthetic Example 56, the compound of the present invention, and four compounds (Reference Synthetic Examples 1 to 4) described in a publication of international patent application (Publication No. WO01/34585, applied by SmithKline Beecham Corp.) were tested according to the method of Assay Example 1.
# [1] = read-out: EC50 (ng/ml) (converted)
Compound,EC50 [µg/mL],Efficacy (%) (maximal growth rate),EC50 [1] [nM],Emax [%]
CC1=NN(c2ccc(C(C)(C)C)cc2)C(=O)C1=C(C)NNC(=O)c1cccc([N+](=O)[O-])c1 [compound 15],0.023,109,,
CC1=NN(c2ccccc2)C(=O)C1=C(C)NNC(=O)c1ccccc1O [compound 16],0.061,58,,
CC1=NN(c2ccccc2)C(=O)C1=C(C)NNC(=O)c1ccc(O)cc1 [compound 17],0.079,73,,
CC1=NN(c2ccccc2)C(=O)C1=C(C)NNC(=O)c1cc2ccccc2cc1O [compound 18],0.055,94,,
CC1=NN(c2ccccc2)C(=O)C1=C(C)NNC(=O)c1ccc(O)cc1O [compound 19],0.014,100,,
CC1=NN(c2ccccc2)C(=O)C1=C(C)NNC(=O)c1ccc(O)c(O)c1 [compound 20],0.038,91,,
CC1=NN(c2ccccc2)C(=O)C1=C(C)NNC(=O)c1ccccc1[N+](=O)[O-] [compound 21],0.29,39,,
CC1=NN(c2ccccc2)C(=O)C1=C(C)NNC(=O)c1ccc([N+](=O)[O-])cc1 [compound 22],0.19,50,,
CC1=NN(c2ccc(C(C)(C)C)cc2)C(=O)C1=C(C)NNC(=O)c1ccccc1O [compound 23],0.028,129,,
CC1=NN(c2ccc(C(C)(C)C)cc2)C(=O)C1=C(C)NNC(=O)c1ccc(O)cc1 [compound 24],0.0072,89,,
CC1=NN(c2ccc(C(C)(C)C)cc2)C(=O)C1=C(C)NNC(=O)c1cc2ccccc2cc1O [compound 25],0.2,54,,
CC1=NN(c2ccc(C(C)(C)C)cc2)C(=O)C1=C(C)NNC(=O)c1ccc(O)cc1O [compound 26],0.0029,78,,
CC1=NN(c2ccc(C(C)(C)C)cc2)C(=O)C1=C(C)NNC(=O)c1ccc(O)c(O)c1 [compound 27],0.0056,75,,
CC1=NN(c2ccc(C(C)(C)C)cc2)C(=O)C1=C(C)NNC(=O)c1ccccc1[N+](=O)[O-] [compound 28],0.037,99,,
CC1=NN(c2ccc(C(C)(C)C)cc2)C(=O)C1=C(C)NNC(=O)c1ccc([N+](=O)[O-])cc1 [compound 29],0.23,67,,
CC1=NN(c2ccc(C(F)(F)F)cc2)C(=O)C1=C(C)NNC(=O)c1ccccc1O [compound 30],0.019,106,,
CC1=NN(c2ccc(C(F)(F)F)cc2)C(=O)C1=C(C)NNC(=O)c1ccc(O)cc1 [compound 31],0.0052,63,,
CC1=NN(c2ccc(C(F)(F)F)cc2)C(=O)C1=C(C)NNC(=O)c1cc2ccccc2cc1O [compound 32],0.037,90,,
CC1=NN(c2ccc(C(F)(F)F)cc2)C(=O)C1=C(C)NNC(=O)c1ccc(O)cc1O [compound 33],0.0011,96,,
CC1=NN(c2ccc(C(F)(F)F)cc2)C(=O)C1=C(C)NNC(=O)c1ccc(O)c(O)c1 [compound 34],0.0052,99,,
CC1=NN(c2ccc(C(F)(F)F)cc2)C(=O)C1=C(C)NNC(=O)c1ccccc1[N+](=O)[O-] [compound 35],0.034,99,,
CC1=NN(c2ccc(C(F)(F)F)cc2)C(=O)C1=C(C)NNC(=O)c1cccc([N+](=O)[O-])c1 [compound 36],0.059,97,,
CC1=NN(c2ccc(C(F)(F)F)cc2)C(=O)C1=C(C)NNC(=O)c1ccc([N+](=O)[O-])cc1 [compound 37],0.14,63,,

# Continued, values first:
EC50 [µg/mL],Efficacy (%) (maximal growth rate),EC50 [1] [nM],Emax [%],Compound
0.036,93,,,CC1=NN(c2ccc(I)cc2)C(=O)C1=C(C)NNC(=O)c1ccccc1O [compound 38]
0.028,97,,,CC1=NN(c2ccc(I)cc2)C(=O)C1=C(C)NNC(=O)c1ccc(O)cc1 [compound 39]
0.25,37,,,CC1=NN(c2ccc(I)cc2)C(=O)C1=C(C)NNC(=O)c1cc2ccccc2cc1O [compound 40]
0.032,115,,,CC1=NN(c2ccc(I)cc2)C(=O)C1=C(C)NNC(=O)c1ccc(O)c(O)c1 [compound 41]
0.25,71,,,CC1=NN(c2ccc(I)cc2)C(=O)C1=C(C)NNC(=O)c1ccccc1[N+](=O)[O-] [compound 42]
0.083,87,,,CC1=NN(c2ccc(I)cc2)C(=O)C1=C(C)NNC(=O)c1cccc([N+](=O)[O-])c1 [compound 43]
0.25,26,,,CC1=NN(c2ccc(I)cc2)C(=O)C1=C(C)NNC(=O)c1ccc([N+](=O)[O-])cc1 [compound 44]
0.03,74,,,CC1=NN(c2cccc(C(F)(F)F)c2)C(=O)C1=C(C)NNC(=O)c1ccccc1O [compound 45]
0.015,82,,,CC1=NN(c2cccc(C(F)(F)F)c2)C(=O)C1=C(C)NNC(=O)c1ccc(O)cc1 [compound 46]
0.19,48,,,CC1=NN(c2cccc(C(F)(F)F)c2)C(=O)C1=C(C)NNC(=O)c1cc2ccccc2cc1O [compound 47]
0.008,62,,,CC1=NN(c2cccc(C(F)(F)F)c2)C(=O)C1=C(C)NNC(=O)c1ccc(O)cc1O [compound 48]
0.0091,62,,,CC1=NN(c2cccc(C(F)(F)F)c2)C(=O)C1=C(C)NNC(=O)c1ccc(O)c(O)c1 [compound 49]
0.037,89,,,CC1=NN(c2cccc(C(F)(F)F)c2)C(=O)C1=C(C)NNC(=O)c1ccccc1[N+](=O)[O-] [compound 50]
0.033,73,,,CC1=NN(c2cccc(C(F)(F)F)c2)C(=O)C1=C(C)NNC(=O)c1cccc([N+](=O)[O-])c1 [compound 51]
,,268,22,CC1=NN(c2cccc(C(F)(F)F)c2)C(=O)C1=C(C)NNC(=O)c1ccc([N+](=O)[O-])cc1 [compound 52]
,,31.7,120,CC1=NN(c2ccc(C)c(C)c2)C(=O)C1=C(C)NNC(=O)c1ccccc1O [compound 53]
0.0075,61,,,CC1=NN(c2ccc(C)c(C)c2)C(=O)C1=C(C)NNC(=O)c1ccc(O)cc1 [compound 54]
0.22,53,,,CC1=NN(c2ccc(C)c(C)c2)C(=O)C1=C(C)NNC(=O)c1cc2ccccc2cc1O [compound 55]
